In patent publication US7595401B2, “Therapeutic compounds and their use in cancer” (Myriad Pharmaceuticals, Inc., priority 2006, dated 2009):

System: purified human Hsp90
Test: Binding Assay: fluorescence polarization with BODIPY-labeled geldanamycin
Settings: 5 μM compound, BODIPY-GM 10 nM, Hsp90 30 nM
Method in brief: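 Compounds in 2% DMSO final compete with 10 nM BODIPY-GM for 30 nM purified human Hsp90, incubated overnight at room temperature in pH 7.3 HEPES buffer containing Na2MoO4 and DTT. Polarization (mP, ex/em 485/530) normalized to DMSO gives percent inhibition; autofluorescence-confounded data excluded.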

| SMILES | % Inhibition at 5 μM Compound Concentration |
| --- | --- |
| COc1ccc(OC)c(Sc2nc3c(N)ncn(CCC4CC(C)(C)NC(C)(C)C4)c-3n2)c1 [Example 360, 8-[(2,5-Dimethoxyphenyl)thio]-3-[2-(2,2,6,6-tetramethylpiperidin-4-yl)ethyl]-3H-purin-6-amine] | 5% |
| Nc1ncnc2c1nc(Sc1ccc3c(c1)OCO3)n2CCCc1ccccc1 [Example 6, 8-(Benzo[1,3]dioxol-5-ylsulfanyl)-9-(3-phenyl-propyl)-9H-purin-6-ylamine] | 66% |
| COc1ccc(OC)c(Sc2nc3c(N)ncn(CCc4cccc(F)c4F)c-3n2)c1 [Example 146, 3-[2-(2,3-difluoro-phenyl)-ethyl]-8-(2,5-dimethoxy-phenylsulfanyl)-3H-purin-6-ylamine] | 0% |
| CCOc1cc(CCn2cnc(N)c3nc(Sc4cc5c(cc4Br)OCO5)nc2-3)ccc1OC [Example 118, 8-(6-bromo-benzo[1,3]dioxol-5-ylsulfanyl)-3-[2-(3-ethoxy-4-methoxy-phenyl)-ethyl]-3H-purin-6-ylamine] | 0% |
| Cc1ccc(CCn2c(Sc3cc4c(cc3Br)OCO4)nc3c(N)ncnc32)cc1 [Example 163, 8-(6-Bromo-benzo[1,3]dioxol-5-ylsulfanyl)-9-(2-p-tolyl-ethyl)-9H-purin-6-ylamine] | >10% |

Other lines, results leading:

| % Inhibition at 5 μM Compound Concentration | SMILES |
| --- | --- |
| 28% | CC(C)(C)OC(=O)N1CCC(CCn2cnc(N)c3nc(Sc4cc5c(cc4Br)OCO5)nc2-3)C1 (centres unmarked) [Example 413, tert-Butyl 3-(2-{6-amino-8-[(6-bromo-1,3-benzodioxol-5-yl)thio]-3H-purin-3-yl}ethyl)pyrrolidine-1-carboxylate] |
| 0% | CCOC(=O)N1CCCCC1CCn1cnc(N)c2nc(Sc3cc(OC)ccc3OC)nc1-2 (centres unmarked) [Example 338, 2-{2-[6-amino-8-(2,5-dimethoxy-phenylsulfanyl)-purin-3-yl]-ethyl}-piperidine-1-carboxylic acid ethyl ester] |
| 0% | Nc1ncn(CCc2ccccc2Cl)c2nc(Sc3cc4c(cc3Br)OCCO4)nc1-2 [Example 234, 8-[(7-Bromo-2,3-dihydro-1,4-benzodioxin-6-yl)thio]-3-[2-(2-chlorophenyl)ethyl]-3H-purin-6-amine] |

Same assay, conditions: BODIPY-GM 10 nM, Hsp90 30 nM

| SMILES | IC50 |
| --- | --- |
| Nc1ncnc2c1nc(Sc1cc3c(cc1Br)OCO3)n2CCc1c(F)cccc1Cl [Example 130, 8-(6-Bromo-benzo[1,3]dioxol-5-ylsulfanyl)-9-[2-(2-chloro-6-fluoro-phenyl)-ethyl]-9H-purin-6-ylamine] | 40 nM |
| Nc1ncnc2c1nc(Sc1cc3c(cc1Br)OCO3)n2CCN1CCN(C2CCCC2)CC1 [Example 632, 8-[(6-Bromo-1,3-benzodioxol-5-yl)thio]-9-[2-(4-cyclopentylpiperazin-1-yl)ethyl]-9 H-purin-6-amine] | > 3000 nM |
| CC(C)(C)OC(=O)NC(CCn1c(Sc2cc3c(cc2Br)OCO3)nc2c(N)ncnc21)C1CCSCC1 (centres unmarked) [Example 666, tert-Butyl[3-{6-amino-8-[(6-bromo-1,3-benzodioxol-5-yl)thio]-9H-purin-9-yl}-1-(tetrahydro-2H-thiopyran-4-yl)propyl]carbamate] | 800 nM |
| Nc1ncnc2c1nc(Sc1ccc3c(c1)OCO3)n2CCCc1ccccc1 [Example 6, 8-(Benzo[1,3]dioxol-5-ylsulfanyl)-9-(3-phenyl-propyl)-9H-purin-6-ylamine] | 1060 nM |
| COc1ccc(OC)c(Sc2nc3c(N)ncnc3n2CCN2CCN(C(C)=O)CC2)c1 [Example 629, 9-[2-(4-Acetylpiperazin-1-yl)ethyl]-8-[(2,5-dimethoxyphenyl)thio]-9 H-purin-6-amine] | > 25000 nM |
| COc1ccc(OC)c(Sc2nc3c(N)ncnc3n2CCc2ccccc2Cl)c1 [Example 25, 9-[2-(2-Chloro-phenyl)-ethyl]-8-(2,5-dimethoxy-phenylsulfanyl)-9H-purin-6-ylamine] | 41 nM |
| COc1cc(C#N)c(Sc2nc3c(N)ncnc3n2CCC2CCN(C(C)=O)CC2)cc1OC [Example 622, 2-({9-[2-(1-Acetylpiperidin-4-yl)ethyl]-6-amino-9 H-purin-8-yl}thio)-4,5-dimethoxybenzonitrile] | > 5000 nM |
| CCOc1ccc(OCC)c(Sc2nc3c(N)ncnc3n2CCc2ccccc2)c1 [Example 189, 8-(2,5-Diethoxy-phenylsulfanyl)-9-phenethyl-9H-purin-6-ylamine] | > 8000 nM |

Second part, the compound after the results:

| IC50 | SMILES |
| --- | --- |
| 3800 nM | CC(C)[C@@H]1C[C@H](CCn2c(Sc3cc4c(cc3Br)OCO4)nc3c(N)ncnc32)CCN1C(=O)OC(C)(C)C (relative stereo) [Example 429, tert-Butyl cis-4-(2-{6-amino-8-[(6-bromo-1,3-benzodioxol-5-yl)thio]-9H-purin-9-yl}ethyl)-2-isopropylpiperidine-1-carboxylate] |
| 1500 nM | COc1cc(Sc2nc3c(N)ncnc3n2CCc2ccccc2Cl)c(OC)cc1Cl [Example 260, 8-[(4-Chloro-2,5-dimethoxyphenyl)thio]-9-[2-(2-chlorophenyl)ethyl]-9H-purin-6-amine] |
| 500 nM | Nc1ncnc2c1nc(Sc1cc3c(cc1Br)OCCO3)n2CCc1ccccc1Cl [Example 233, 8-[(7-Bromo-2,3-dihydro-1,4-benzodioxin-6-yl)thio]-9-[2-(2-chlorophenyl)ethyl]-9H-purin-6-amine] |
| 70 nM | Nc1ncnc2c1nc(Sc1cc3c(cc1Br)OCO3)n2CCc1ccccc1Br [Example 149, 8-(6-Bromo-benzo[1,3]dioxol-5-ylsulfanyl)-9-[2-(2-bromo-phenyl)-ethyl]-9H-purin-6-ylamine] |
| 210 nM | CC(C)CN1CCCCC1CCn1c(Sc2cc3c(cc2Br)OCO3)nc2c(N)ncnc21 (centres unmarked) [Example 447, 8-[(6-Bromo-1,3-benzodioxol-5-yl)thio]-9-[2-(1-isobutylpiperidin-2-yl)ethyl]-9H-purin-6-amine] |
| 1600 nM | COc1ccnc(Sc2nc3c(N)ncnc3n2CCC2CCN(C=O)CC2)c1 [Example 538, 4-(2-{6-Amino-8-[(4-methoxypyridin-2-yl)thio]-9 H-purin-9-yl}ethyl)piperidine-1-carbaldehyde] |
| 190 nM | C[C@H](NC(=O)OC(C)(C)C)C(=O)N1CCCC(CCn2c(Sc3cc4c(cc3Br)OCO4)nc3c(N)ncnc32)C1 (stereo partly drawn) [Example 703, tert-Butyl{(1S)-2-[3-(2-{6-amino-8-[(6-bromo-1,3-benzodioxol-5-yl)thio]-9H-purin-9-yl}ethyl)piperidin-1-yl]-1-methyl-2-oxoethyl}carbamate] |
| > 25000 nM | CC(C)(C)OC(=O)Nc1ccc(CCn2c(Sc3cc4c(cc3Br)OCO4)nc3c(N)ncnc32)cc1 [Example 211, (4-{2-[6-Amino-8-(6-bromo-benzo[1,3]dioxol-5-ylsulfanyl)-purin-9-yl]-ethyl}-phenyl)carbamic acid tert-butyl ester] |
| 240 nM | Nc1ncnc2c1nc(Sc1cc3c(cc1Br)OCO3)n2CCC1CCN(CC2CCCCC2)CC1 [Example 581, 8-[(6-Bromo-1,3-benzodioxol-5-yl)thio]-9-{2-[1-(cyclohexylmethyl)piperidin-4-yl]ethyl}-9 H-purin-6-amine] |
| 390 nM | C[C@H](NC(=O)OC(C)(C)C)C(=O)N1CCC(CCn2c(Sc3nc4cccc(Cl)c4s3)nc3c(N)ncnc32)CC1 [Example 773, tert-Butyl {(1S)-2-[4-(2-{6-amino-8-[(7-chloro-1,3-benzothiazol-2-yl)thio]-9H-purin-9-yl}ethyl)piperidin-1-yl]-1-methyl-2-oxoethyl}carbamate] |
